Patent US5314880A, “Benzimidazole derivatives” (British Bio-technology Limited, priority 1989, dated 1994)

target: T1, PAF receptor (human platelet plasma membrane) (Homo sapiens, UniProt P25105); experiment: Inhibition of ^3 H-PAF receptor binding to human platelet plasma membrane; details: ^3 H-PAF 0.5 nM, 0° C., 1 hour
T1 construct: Platelet concentrates were obtained from a hospital blood bank; from tissue; host or cells: human platelets (hospital blood bank concentrates), lysed platelet membranes
T1 sequence (P25105 whole entry): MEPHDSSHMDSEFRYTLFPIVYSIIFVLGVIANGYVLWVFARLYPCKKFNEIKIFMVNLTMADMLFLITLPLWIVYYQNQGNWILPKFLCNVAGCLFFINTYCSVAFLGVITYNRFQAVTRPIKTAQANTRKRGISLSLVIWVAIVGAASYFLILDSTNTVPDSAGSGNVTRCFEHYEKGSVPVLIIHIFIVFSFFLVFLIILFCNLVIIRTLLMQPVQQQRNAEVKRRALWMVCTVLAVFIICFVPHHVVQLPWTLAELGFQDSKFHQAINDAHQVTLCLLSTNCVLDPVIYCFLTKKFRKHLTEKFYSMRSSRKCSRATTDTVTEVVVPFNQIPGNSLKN
Description: Compounds of general formula I inhibit PAF induced functions in both the cellular and tissue levels by changing the PAF binding to its specific receptor site. The ability of compounds of general formula I to inhibit platelet aggregation in human platelet-rich plasma, and to inhibit the binding of PAF to its specific receptor binding site on human platelet plasma membranes was measured in the assay described in the pharmacology example.
The inhibition of ^3 H-PAF binding to human platelet plasma membrane by compounds of general formula I was determined by isotopic labelling and filtration techniques. Platelet concentrates were obtained from a hospital blood bank. These platelet concentrates (500-2500 ml.) were centrifuged at 800 rpm for 10 minutes in a SORVALL RC3B centrifuge to remove the red blood cells present. (The word SORVALL is a trade mark.) The supernatant was subsequently centrifuged at 3,000 rpm in a SORVALL RC3B centrifuge to pellet the platelets present. The platelet rich pellets were resuspended in a minimum volume of buffer (150 Mm NaCl, 10 mM Tris, 2 mM EDTA, pH 7.5) and layered onto Ficoll-Paque gradients, 9 ml platelet concentrate to 2 ml Ficoll, and centrifuged at 1,900 rpm for 15 minutes in a SORVALL RT6000 centrifuge. This step removes the residual red blood cells and other nonspecific material such as lymphocytes from the preparation. The platelets which form a band between the plasma and the Ficoll were removed, resuspended in the above buffer and centrifuged at 3,000 rpm for 10 minutes in a SORVALL RT6000 centrifuge. The pelleted platelets were resuspended in buffer (10 mM Tris, 5 mM MgCl2, 2 mM EDTA, pH 7.0), snap-freezed in liquid N2 and allowed to thaw slowly at room temperature in order to lyse the platelets. The latter step was repeated at least 3 times to ensure proper lysis. The lysed platelets were centrifuged at 3,000 rpm for 10 minutes in a SORVALL RT6000 centrifuge and resuspended in buffer. The latter step was reseated twice in order to remove any cytoplasmic proteins which may hydrolyse the platelet activating factor (PAF) receptor. The prepared platelet membranes may be stored at -70° C. After thawing the prepared membranes were centrifuged in a SORVALL RT6000 at 3,000 rpm for 10 minutes and resuspended in assay buffer.
The assay was conducted by preparing a series of a Tris-buffered solutions of the selected antagonist of predetermined concentrations. Each of these solutions contained ^3 H-PAF (0.5 nM; 1-O-(^3 H]octadecyl-2-acetyl-sn-glycero-3-phosphoryl choline with a specific activity of 132 Ci/mmol), […], a known amount of the test antagonist, and a sufficient amount of Tris-buffer solution (10 mM Tris, 5 mM MgCl2, pH 7.0, 0.25% BSA) to make the final volume 1 ml. Incubation was initiated by the addition of 100 μg of the isolated membrane fraction to each of the above solutions at 0° C. Two control samples, one which ([…]) contained all the ingredients described above except the antagonist and the other (C2) contains C1 plus a 1000-fold excess of unlabelled PAF, were also prepared and incubated simultaneously with the test samples. After 1 hour incubation, each solution was filtered rapidly under vacuo through a WHATMAN GF/C glass fiber falter in order to separate unbound PAF from bound PAF. (The word WHATMAN is a trade mark.) The residue in each case was rapidly washed 4 times with 5 ml cold (4° C.) Tris-buffer solution. Each washed residue was dried under vacuum on a sampling manifold and placed into vials containing 20 ml of OPTIPHASE MP scintillation fluid and the radioactivity counted in a liquid scintillation counter. (The word OPTIPHASE is a trade mark.) Defining the counts for total binding with antagonist from a test sample as "TBA"; the counts for total binding from the control sample C1 as "TB"; and the counts for nonspecific binding from the control sample C2 as "NSB", the percent inhibition of each test antagonist can be determined by the following equation. […]

Structure (SMILES) | IC50 [nM]
Cc1nc2ccccc2n1Cc1ccc(S(=O)(=O)N2CCC[C@H]3CCCC[C@@H]32)cc1 (relative stereo) [Example 92, trans-Decahydroquinolinyl 4-(1H-2-methylbenzimidazylmethyl) benzenesulphonamide] | 700
CCN(C(=O)c1ccc(Cn2c(C)nc3ccccc32)cc1)C1CCCCC1 [Example 21, N-Cyclohexyl-N-ethyl 4-(1H-2-methylbenzimidazylmethyl)benzamide] | 500
Cc1nc2ccccc2n1Cc1ccc(C(=O)N(C2CCCCC2)C2CCCCC2)cc1 [Example 22, N,N-Dicyclohexyl 4-(1H-2-methylbenzimidazylmethyl)benzamide] | 650
CSc1nc2ccccc2n1Cc1ccc(C(=O)N(C)C2CCCCC2)cc1 [Example 26, N-Cyclohexyl-N-methyl 4-(1H-2-thiomethylbenzimidazylmethyl) benzamide] | 3000
Cc1nc2ccccc2n1Cc1ccc(S(=O)(=O)N(C)C2CCCCC2)cc1 [Example 41, N-Cyclohexyl-N-methyl 4-(1H-2-methylbenzimidazylmethyl) benzenesulphonamide] | 300
Cc1nc2cc([N+](=O)[O-])ccc2n1Cc1ccc(S(=O)(=O)N(C)C2CCCCC2)cc1 [Example 44, N-Cyclohexyl-N-methyl 4-(1H-2-methyl-5-nitrobenzimidazylmethyl) benzenesulphonamide] | 5000
CCN(C1CCCCC1)S(=O)(=O)c1ccc(Cn2c(C)nc3ccccc32)cc1 [Example 49, N-Cyclohexyl-N-ethyl 4-(1H-2-(2-methyl)benzimidazylmethyl) benzenesulphonamide] | 500
Cc1nc2ccccc2n1Cc1ccc(S(=O)(=O)N2CCCCC2)cc1 [Example 50, Piperidinyl 4-(1H-2-methylbenzimidazylmethyl)benzenesulphonamide] | 2000
Cc1nc2ccccc2n1Cc1ccc(NC(=O)C2CCCCC2)cc1 [Example 58, N-4-(1H-2-Methylbenzimidazylmethyl)benzyl cyclohexylamide] | 2000
Cc1nc2ccccc2n1Cc1ccc(N(C)P(=O)(c2ccccc2)c2ccccc2)cc1 [Example 59] | 500
CSC(c1ccc(C(=O)N(C)C2CCCCC2)cc1)n1cnc2ccccc21 (stereo not drawn) [Example 63, N-Cyclohexyl-N-methyl 4-(1H-benzimidazylthiomethylmethyl) benzamide] | 500
Cc1nc2ccccc2n1Cc1ccc(S(=O)(=O)NCc2ccccc2Cl)cc1 [Example 80, N-2-Chlorobenzyl 4-(1H-2-methylbenzimidazylmethyl) benzenesulphonamide] | 900
